{
  "source": "paper PMC11251039",
  "about": "“Harnessing cholesterol uptake of malaria parasites for therapeutic applications” (EMBO Molecular Medicine, 2024)",
  "tested_on": "P. falciparum CAM3.IIREV ring stages (0–3 h post invasion)",
  "assay": "Plasmodium falciparum ring stage survival assay, susceptible revertant strain",
  "format": "cell-based",
  "procedure": "Following tight synchronisation using sorbitol and Percoll® floatation, ring stage CAM3.II and CAM3.IIREV parasites (0–3 h post invasion) at 1% parasitaemia and 2% haematocrit were incubated with 700 nM of compounds or solvent-only controls for exactly 6 h, before removing the drug, thoroughly washing in RPMI with HEPES, and returning to culture conditions for a further 66 h. Some cells were treated with 700 nM artesunate for 72 h as a no-growth control. DNA replication (indicating growth) was measured at the specified time using SYBR Safe DNA Stain. Microscope slide smears of each condition were stained with 10% v/v Giemsa and examined under a light microscope (×1000 magnification); with ‘viable’ (morphologically normal) and ‘non-viable’ (morphologically aberrant; vacuolated or pyknotic) parasites distinguished according to standard protocol (Witkowski et al, [2013]). Images were captured using a Leica ICC50 camera, with a resolution of 76 nm per pixel, and cropped from larger images using Fiji ImageJ.\nAppendix Fraser/Curtis et al.\nCells were detached from a flask using 0.25% Trypsin with 0.2 g/L EDTA (Sigma T4049) and washed with culture media containing no phenol red. Cells were incubated with a serial dilution of each compound, or media/DMSO alone. The protein synthesis inhibitor cycloheximide (Sigma 01810) at 10 µg/mL was used as a positive control to determine background absorbance. 5,000 cells were seeded in each well. After 96 hours, 0.45 mg/mL methylthiazolyldiphenyl-tetrazolium bromide (MTT; Sigma M2128) was added and incubated for a further two hours, before mixing 1.1:1 with 10% w/v sodium dodecyl sulfate (SDS) to solubilise crystals and freezing the plate at -18 °C to stop the assay. Plates were defrosted at room temperature and absorbance was read at 570 nm in an Infinite M1000 pro plate reader […]\nPlasmodium falciparum Ring Stage Survival Assay\nRing stage survival assays were conducted according to standard protocols with some modifications (27, 28). CAM3.11 and CAM3.11REV parasites were sorbitol synchronised twice, 12 hours apart, and then incubated for a further 30 hours until the majority of the parasites were mature schizonts (with clearly separated nuclei). Pelleted RBCs were incubated at 37 °C with heparinised RPMI for 15 minutes, and then centrifuged over 75% Percoll® in PBS for 15 minutes at 1,000 g. Mature schizonts were collected, washed with warm RPMI, and cultured for exactly three hours with fresh uRBCs and culture media. After 3 hours, the cultures were sorbitol synchronised and incubated in duplicate with 700 nM of artesunate, PAYb076a, GGA5, HJB8a53, a DMSO solvent-only control or media alone for exactly six hours, before removing the drug, washing in RPMI, and returning to culture conditions. Samples of each cell suspension were transferred to a -18 °C freezer at the start of the assay (time = 0) or treated for the entire 72 hours with 700 nM artesunate to determine background fluorescence under no-growth conditions. After a further 66 hours of incubation (totalling 72 hours), cells were […]\nresuspended, and a sample from each well was transferred to a fresh plate and frozen at -18 °C.\nMicroscope slide smears were made using the remaining cells and stained with 10% v/v Giemsa. Plates were thawed and SYBR Safe DNA Gel Stain (final concentration 1/10,000) diluted in lysis buffer (as above) was added for DNA detection at 490 nm excitation / 520 nm emission on a FLUOstar Optima fluorescence plate reader. Parasite proliferation and viability were also assessed using Giemsa-stained smears examined under a light microscope (1,000× magnification); with ‘viable’ and ‘non-viable’ (vacuolated or pyknotic) parasites distinguished according to standard protocol. Images were captured using a Leica ICC50 camera, with a resolution of 76 nm per pixel.\nGrowth inhibition data were normalised by subtracting background fluorescence, […]",
  "note": "“And” between values parts separate entries of the source, which are not always exact repeats. Equal entries are not always repeated.",
  "data": [
    {"smiles": "CC(C)OC(=O)CCC(=O)O[C@H]1CC[C@H]2[C@@H]3CC=C4C[C@@H](O)CC[C@]4(C)[C@H]3CC[C@]12C", "note": "[C-17-link]", "values": [
      {"measurement": "Ring stage survival, growth", "setting": "700 nM, 6 h treatment, 66 h further growth, CAM3.IIREV susceptible", "result": "did not significantly impact the growth"},
      {"measurement": "Ring stage survival, individual data points (Figure 4C)", "setting": "CAM3.11REV, replicate experiments, listed as HJB8a53", "result": "98.68 and 105.5 and 54.94 and 92.61"}
    ]}
  ]
}
